Consider 3 molecules from publication PMC9891081 (Cell, 2022).

The target of assay [1] is rabbit Cav1.1 (rCav1.1) α1 subunit (Oryctolagus cuniculus, UniProt P07293). As to the kind of experiment: cryo-EM structure. The format is binding.
Assay [2] concerns the target human Cav1.2 (Homo sapiens, UniProt Q13936). As to the kind of experiment: calcium influx assay in HEK293 cells. The format is cell-based.
The target in assay [3] is rabbit Cav1.1 α1 subunit (rabbit, UniProt P07293 1-1873). Kind of assay: cryo-EM structure.
Chain of rabbit Cav1.1 α1 subunit (P07293 whole entry): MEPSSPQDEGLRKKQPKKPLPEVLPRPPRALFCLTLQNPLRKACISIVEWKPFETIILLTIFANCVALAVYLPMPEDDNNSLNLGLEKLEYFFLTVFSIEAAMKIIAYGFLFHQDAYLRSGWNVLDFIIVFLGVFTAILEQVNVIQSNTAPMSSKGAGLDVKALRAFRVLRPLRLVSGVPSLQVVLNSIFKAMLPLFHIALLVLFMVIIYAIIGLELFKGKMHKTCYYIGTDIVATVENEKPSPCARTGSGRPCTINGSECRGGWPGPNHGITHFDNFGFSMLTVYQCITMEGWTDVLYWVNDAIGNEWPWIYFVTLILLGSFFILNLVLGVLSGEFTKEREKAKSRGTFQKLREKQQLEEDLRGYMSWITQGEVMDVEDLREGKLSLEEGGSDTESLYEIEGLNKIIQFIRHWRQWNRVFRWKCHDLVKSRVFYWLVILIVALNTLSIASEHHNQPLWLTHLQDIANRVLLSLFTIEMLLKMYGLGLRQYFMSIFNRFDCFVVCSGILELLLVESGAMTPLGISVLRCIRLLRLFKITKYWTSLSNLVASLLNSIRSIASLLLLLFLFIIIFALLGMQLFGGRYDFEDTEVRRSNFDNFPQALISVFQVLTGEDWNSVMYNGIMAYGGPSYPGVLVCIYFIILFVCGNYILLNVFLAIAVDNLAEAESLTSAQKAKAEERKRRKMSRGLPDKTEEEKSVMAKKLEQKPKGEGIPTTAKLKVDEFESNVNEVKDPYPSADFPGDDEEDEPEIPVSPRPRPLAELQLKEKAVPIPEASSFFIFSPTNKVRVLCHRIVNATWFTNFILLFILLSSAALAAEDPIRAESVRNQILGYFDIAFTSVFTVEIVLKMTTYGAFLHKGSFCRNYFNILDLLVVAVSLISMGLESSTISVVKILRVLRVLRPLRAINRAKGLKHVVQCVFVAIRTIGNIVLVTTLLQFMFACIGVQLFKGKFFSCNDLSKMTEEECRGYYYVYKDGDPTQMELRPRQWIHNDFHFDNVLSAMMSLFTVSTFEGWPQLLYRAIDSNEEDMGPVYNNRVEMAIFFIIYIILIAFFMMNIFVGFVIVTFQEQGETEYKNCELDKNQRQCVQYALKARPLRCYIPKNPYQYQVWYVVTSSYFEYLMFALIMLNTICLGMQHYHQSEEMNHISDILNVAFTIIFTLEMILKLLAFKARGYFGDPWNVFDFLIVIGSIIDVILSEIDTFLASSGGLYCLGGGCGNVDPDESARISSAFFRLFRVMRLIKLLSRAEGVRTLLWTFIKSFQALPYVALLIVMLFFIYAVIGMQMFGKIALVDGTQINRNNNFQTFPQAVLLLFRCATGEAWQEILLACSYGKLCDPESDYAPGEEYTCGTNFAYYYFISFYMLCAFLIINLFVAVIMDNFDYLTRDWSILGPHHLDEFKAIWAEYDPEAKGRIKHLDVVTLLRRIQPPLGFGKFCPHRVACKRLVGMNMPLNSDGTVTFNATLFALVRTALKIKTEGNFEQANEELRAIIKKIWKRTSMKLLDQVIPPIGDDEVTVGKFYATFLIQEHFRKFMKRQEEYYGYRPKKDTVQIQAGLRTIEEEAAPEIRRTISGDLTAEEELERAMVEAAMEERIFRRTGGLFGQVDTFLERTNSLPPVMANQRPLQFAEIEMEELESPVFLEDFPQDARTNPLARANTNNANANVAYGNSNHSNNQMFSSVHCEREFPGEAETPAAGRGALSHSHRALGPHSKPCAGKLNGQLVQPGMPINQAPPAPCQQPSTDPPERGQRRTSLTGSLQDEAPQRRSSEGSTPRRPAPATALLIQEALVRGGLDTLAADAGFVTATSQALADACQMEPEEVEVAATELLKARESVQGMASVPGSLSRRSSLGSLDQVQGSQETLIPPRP

Chain of rabbit Cav1.1 (rCav1.1) α1 subunit (P07293 whole entry, one chain of several): as the sequence (P07293 whole entry) above
Chain of rabbit Cav1.1 (rCav1.1) α1 subunit (P13806 27-960 partner, one chain of several): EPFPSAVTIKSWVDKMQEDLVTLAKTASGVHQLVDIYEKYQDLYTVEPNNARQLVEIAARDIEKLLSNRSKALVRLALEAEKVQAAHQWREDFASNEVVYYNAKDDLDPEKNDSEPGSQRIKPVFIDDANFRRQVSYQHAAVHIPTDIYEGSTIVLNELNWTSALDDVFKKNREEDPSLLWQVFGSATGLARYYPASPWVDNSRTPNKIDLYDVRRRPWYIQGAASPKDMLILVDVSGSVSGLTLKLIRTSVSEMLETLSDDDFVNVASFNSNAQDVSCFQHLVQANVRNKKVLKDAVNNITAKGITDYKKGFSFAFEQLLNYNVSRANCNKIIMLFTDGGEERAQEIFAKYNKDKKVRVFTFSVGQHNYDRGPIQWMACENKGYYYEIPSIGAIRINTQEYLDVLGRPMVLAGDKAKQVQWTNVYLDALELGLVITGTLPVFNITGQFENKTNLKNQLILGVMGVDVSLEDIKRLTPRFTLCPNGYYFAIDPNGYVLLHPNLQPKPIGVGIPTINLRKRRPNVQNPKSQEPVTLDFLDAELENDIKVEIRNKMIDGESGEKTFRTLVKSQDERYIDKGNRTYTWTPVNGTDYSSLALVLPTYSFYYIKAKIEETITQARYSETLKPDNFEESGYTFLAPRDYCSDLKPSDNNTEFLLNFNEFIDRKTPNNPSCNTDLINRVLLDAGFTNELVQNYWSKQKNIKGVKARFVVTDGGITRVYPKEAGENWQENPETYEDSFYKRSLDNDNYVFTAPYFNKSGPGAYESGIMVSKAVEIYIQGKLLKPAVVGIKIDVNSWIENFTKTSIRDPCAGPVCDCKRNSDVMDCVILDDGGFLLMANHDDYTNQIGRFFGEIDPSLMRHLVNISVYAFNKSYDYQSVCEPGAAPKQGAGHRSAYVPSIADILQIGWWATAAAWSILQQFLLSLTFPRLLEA
Chain of rabbit Cav1.1 (rCav1.1) α1 subunit (P13806 961-1106 partner, one chain of several): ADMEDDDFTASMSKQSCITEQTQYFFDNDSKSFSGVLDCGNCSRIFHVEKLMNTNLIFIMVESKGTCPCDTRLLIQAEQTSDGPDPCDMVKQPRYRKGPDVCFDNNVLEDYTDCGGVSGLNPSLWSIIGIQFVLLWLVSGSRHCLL

For the molecule `CCCCc1oc2ccccc2c1C(=O)c1cc(I)c(OCCN(CC)CC)c(I)c1` [AMIO, amiodarone], the “cryo-EM structure (2.8 Å)” value in assay [1] is “AMIO occupies the same site as for DHP compounds, i.e., the III-IV fenestration enclosed by S5III, S6III, and S6IV”.
Take `C#C[C@]1(C)[C@@H](O)[C@@H](COP(=O)(N[C@@H](C)C(=O)OC(C)C)Oc2ccccc2)O[C@H]1n1ccc(=O)[nH]c1=O` (stereo partly drawn) [MNI-1]: in assay [2], the IC50 (in general, the point on the concentration scale where inhibition reaches its midpoint) was > 100 µM.

B1: rabbit γ1 subunit (natural protein, UniProt P19518 1-222, looked up)
chain: MSPTEAPKVRVTLFCILVGIVLAMTAVVSDHWAVLSPHMENHNTTCEAAHFGLWRICTKRIALGEDRSCGPITLPGEKNCSYFRHFNPGESSEIFEFTTQKEYSISAAAISVFSLGFLIMGTICALMAFRKKRDYLLRPASMFYVFAGLCLFVSLEVMRQSVKRMIDSEDTVWIEYYYSWSFACACAAFVLLFLGGISLLLFSLPRMPQNPWESCMDAEPEH
Regarding B1, the binding result in assay [3] was “binds”.
